These results are taken from DBAASP.

As usually defined, the MIC is the lowest concentration found to suppress growth.

Some test systems named below: Shigella dysenteriae; Escherichia coli; Micrococcus luteus; Proteus mirabilis; Salmonella typhimurium; Staphylococcus aureus; Klebsiella pneumoniae; Bacillus subtilis; Pseudomonas aeruginosa; Bacillus cereus; Escherichia coli JW0013.
Common to all, as to test: ≥ marks a high value that may be exact or a test limit, other limits are often not marked, values filed in µg/mL are converted to µM
For assay [1], the system named is Micrococcus luteus ATCC 9341.
For assay [2], the system named is Staphylococcus epidermidis.
Assay [3] relates to Klebsiella pneumoniae ATCC 10031.
Assay [4] deals with Salmonella enterica subsp. enterica serovar Typhimurium ATCC 14028.
Assay [5] deals with Escherichia coli DH5alpha.
The subject of assay [6] is Escherichia coli ATCC 25922.
Assay [7] has as its system Staphylococcus aureus ATCC 2592.
The test system of assay [8] is Candida albicans ATCC 2002.
Assay [9] has as its system Pseudomonas aeruginosa ATCC 27853.
Assay [10] concerns Bacillus subtilis ATCC 6051.
For assay [11], the system named is Staphylococcus aureus ATCC 25923.

In brackets after ≈: the same amount, converted by molar mass. Where only a bound is given, the exact number is not on record here.

The compound `CC(C)C[C@H](NC(=O)[C@H](C)N)C(=O)N1CCC[C@H]1C(=O)N[C@@H](Cc1c[nH]c2ccccc12)C(=O)N[C@@H](CCCCN)C(=O)N[C@@H](Cc1c[nH]c2ccccc12)C(=O)N1CCC[C@H]1C(=O)N[C@@H](Cc1c[nH]c2ccccc12)C(=O)N[C@@H](Cc1c[nH]c2ccccc12)C(=O)N1CCC[C@H]1C(=O)N[C@@H](Cc1c[nH]c2ccccc12)C(=O)N[C@@H](CCCN=C(N)N)C(=O)N[C@@H](CCCN=C(N)N)C(N)=O` [ALPWKWPWWPWRR] showed a minimal inhibitory concentration (MIC) in [1] of 0.4 µM (≈ 0.746 µg/mL).

As to `CC(C)C[C@H](NC(=O)[C@H](C)NC(=O)CNC(=O)[C@H](CC(C)C)NC(=O)[C@@H](N)Cc1ccccc1)C(=O)N[C@@H](Cc1ccccc1)C(=O)N[C@@H](CCCCN)C(=O)N[C@H](C(=O)N[C@@H](C)C(=O)N[C@@H](CO)C(=O)N[C@@H](Cc1c[nH]c2ccccc12)C(=O)O)C(C)C` [FLGALFKVASW], the MIC against Shigella dysenteriae was at least 161 µM; against Escherichia coli, above 161 µM; against Micrococcus luteus it was at least 161 µM; against Proteus mirabilis it was at least 161 µM; in the assay with Salmonella typhimurium, at least 161 µM; against Staphylococcus aureus it was above 161 µM. Further, the MIC in the assay on Klebsiella pneumoniae is above 161 µM; in [2], at least 161 µM; with Bacillus subtilis it was at least 161 µM; against Pseudomonas aeruginosa it was above 161 µM.

In the case of `CC(C)C[C@H](NC(=O)CNC(=O)[C@H](C)NC(=O)[C@H](CC(C)C)NC(=O)[C@H](CC(C)C)NC(=O)[C@H](CCCCN)NC(=O)[C@H](CC(C)C)NC(=O)[C@@H](N)Cc1ccccc1)C(=O)N[C@@H](CC(C)C)C(=O)N[C@@H](CCCCN)C(=O)N[C@@H](CC(N)=O)C(=O)N[C@@H](Cc1ccccc1)C(=O)N[C@@H](C)C(=O)O` [FLKLLAGLLKNFA], the minimum inhibitory concentration (MIC) in assay [3] is at least 34.5 µM; in assay [4], above 69.1 µM; in assay [5] it was at least 69.1 µM.

Take `CC[C@H](C)[C@@H]1NC(=O)[C@H](CCCCN)NC(=O)[C@@H](NC(=O)[C@H](Cc2ccccc2)NC(=O)[C@H](CC(C)C)NC(=O)[C@H](CCCCN)NC(=O)[C@@H]2CCCN2C(=O)[C@H](CC(C)C)NC(=O)[C@H](Cc2ccccc2)NC(=O)[C@H](CC(N)=O)NC(=O)[C@H](C)NC(=O)[C@H](C)NC(=O)[C@H](CC(C)C)NC(=O)[C@H](CO)NC(=O)[C@@H](NC(=O)[C@H](C)NC(=O)[C@H](CC(C)C)NC(=O)[C@@H]2CCCN2C(=O)[C@H](CC(C)C)NC(=O)[C@@H](N)Cc2ccccc2)C(C)C)CSSC[C@@H](C(=O)O)NC(=O)[C@H](CCCCN)NC(=O)[C@H](CCCCN)NC(=O)[C@H]([C@@H](C)O)NC1=O` [FLPLAVSLAANFLPKLFCKITKKC]: the minimum inhibitory concentration (MIC) came out at 2.44 µM (≈ 6.5 µg/mL) in assay [6], 0.825 µM (≈ 2.2 µg/mL) in the assay with Shigella dysenteriae, 2.06 µM (≈ 5.5 µg/mL) in assay [7] and 2.81 µM (≈ 7.49 µg/mL) in assay [8].

On to `CC(C)C[C@H](NC(=O)[C@H](C)NC(=O)[C@H](Cc1c[nH]c2ccccc12)NC(=O)[C@H](CC(C)C)NC(=O)[C@@H](N)Cc1ccccc1)C(=O)N[C@@H](Cc1ccccc1)C(=O)N[C@@H](CCCCN)C(=O)N[C@H](C(=O)N[C@@H](C)C(=O)N[C@@H](CO)C(=O)N[C@@H](CCCCN)C(=O)O)C(C)C` [FLWALFKVASK], for which the minimum inhibitory concentration (MIC) against Shigella dysenteriae is at least 153 µM; with Escherichia coli, 76.4 µM (≈ 100 µg/mL); in the assay with Micrococcus luteus, at least 38.2 µM; against Proteus mirabilis it was at least 153 µM; in the assay on Salmonella typhimurium, at least 153 µM; with Staphylococcus aureus, 9.54 µM (≈ 12.5 µg/mL). The minimum inhibitory concentration (MIC) against Klebsiella pneumoniae was 76.4 µM (≈ 100 µg/mL); in assay [2] it was 19.1 µM (≈ 25 µg/mL); in the assay with Bacillus subtilis it was 9.54 µM (≈ 12.5 µg/mL); against Pseudomonas aeruginosa it was above 153 µM.

On to `CC[C@H](C)[C@H](NC(=O)[C@H](CC(N)=O)NC(=O)[C@H](Cc1ccccc1)NC(=O)[C@H](CC(C)C)NC(=O)CN)C(=O)N[C@H](C(=O)N[C@@H](CCCCN)C(=O)N[C@@H](CCCCN)C(=O)N[C@H](C(=O)N[C@H](C(=O)NCC(=O)N[C@@H](CCCCN)C(=O)N[C@@H](CC(C)C)C(=O)N[C@@H](CCCN=C(N)N)C(=O)O)[C@@H](C)CC)[C@@H](C)O)[C@@H](C)CC` [GLFNIIKKTIGKLR], for which the minimum inhibitory concentration (MIC) was 40 µM (≈ 64 µg/mL) in assay [6], 20 µM (≈ 32 µg/mL) in assay [9], at least 40 µM in [10] and 160 µM (≈ 256 µg/mL) in assay [11].

For `CC[C@H](C)[C@H](N)C(=O)N[C@@H](CC(C)C)C(=O)N1CCC[C@H]1C(=O)N[C@@H](Cc1c[nH]c2ccccc12)C(=O)N[C@@H](CCCCN)C(=O)N[C@@H](Cc1c[nH]c2ccccc12)C(=O)N1CCC[C@H]1C(=O)N[C@@H](Cc1c[nH]c2ccccc12)C(=O)N[C@@H](Cc1c[nH]c2ccccc12)C(=O)N1CCC[C@H]1C(=O)N[C@@H](Cc1c[nH]c2ccccc12)C(=O)N[C@@H](CCCCN)C(=O)N[C@@H](CCCCN)C(N)=O` [ILPWKWPWWPWKK], the minimum inhibitory concentration (MIC) came out at 16 µM (≈ 29.6 µg/mL) in [6] and 0.4 µM (≈ 0.74 µg/mL) in assay [1].

Turning to `CSCC[C@H](NC(=O)[C@H](CO)NC(=O)[C@H](Cc1ccc(O)cc1)NC(=O)[C@H](C)NC(=O)[C@@H](N)CCCCN)C(=O)N1CCC[C@H]1C(=O)N[C@@H](CCCN=C(N)N)C(=O)N[C@H]1CSSC[C@@H](C(=O)N[C@@H](Cc2c[nH]c3ccccc23)C(=O)N[C@@H](CC(C)C)C(N)=O)NC(=O)[C@H](CC(C)C)NC(=O)[C@H](C(C)C)NC(=O)[C@H](C)NC(=O)[C@H](CCCN=C(N)N)NC(=O)[C@H](Cc2ccccc2)NC(=O)[C@H](CC(C)C)NC(=O)[C@H](Cc2ccc(O)cc2)NC(=O)[C@H](CCCCN)NC1=O` [KAYSMPRCKYLFRAVLCWL], the minimum inhibitory concentration (MIC) in assay [6] was 10.6 µM (≈ 25 µg/mL); in the assay with Shigella dysenteriae, 5.32 µM (≈ 12.5 µg/mL); in assay [7], 5.32 µM (≈ 12.5 µg/mL); with Bacillus cereus, 21.3 µM (≈ 49.9 µg/mL); in the assay with Pseudomonas aeruginosa, 10.6 µM (≈ 25 µg/mL); in assay [8] it was at least 42.6 µM.

For `CC[C@H](C)[C@H](NC(=O)[C@H](CCCN=C(N)N)NC(=O)[C@H](CCCN=C(N)N)NC(=O)[C@@H]1CCCN1C(=O)[C@@H]1CCCN1C(=O)[C@H](CCCN=C(N)N)NC(=O)[C@@H]1CCCN1C(=O)[C@H](CCCN=C(N)N)NC(=O)[C@@H]1CCCN1C(=O)[C@H](CC(C)C)NC(=O)[C@H](Cc1ccc(O)cc1)NC(=O)[C@H](Cc1cnc[nH]1)NC(=O)[C@H](CCCCN)NC(=O)[C@H](CCCCN)NC(=O)[C@H](CC(=O)O)NC(=O)[C@@H](N)C(C)C)C(=O)N[C@@H](Cc1ccc(O)cc1)C(=O)N[C@@H](CC(N)=O)C(=O)N[C@@H](CCCN=C(N)N)C(N)=O` [VDKKHYLPRPRPPRRIYNR], the minimal inhibitory concentration (MIC) against Escherichia coli JW0013 was determined as 0.975 µM (≈ 2.4 µg/mL).

As to `CC[C@H](C)[C@H](NC(=O)[C@H](CCCN=C(N)N)NC(=O)[C@H](CCCN=C(N)N)NC(=O)[C@@H]1CCCN1C(=O)[C@@H]1CCCN1C(=O)[C@H](CCCN=C(N)N)NC(=O)[C@@H]1CCCN1C(=O)[C@H](CCCN=C(N)N)NC(=O)[C@@H]1CCCN1C(=O)[C@H](CCCCN)NC(=O)[C@H](CCCN=C(N)N)NC(=O)[C@@H]1CCCN1C(=O)[C@H](CCCCN)NC(=O)[C@H](CCCCN)NC(=O)[C@H](CC(=O)O)NC(=O)[C@@H](N)C(C)C)C(=O)N[C@@H](Cc1ccc(O)cc1)C(=O)N[C@@H](CC(N)=O)C(=O)N[C@@H](CCCN=C(N)N)C(N)=O` [VDKKPRKPRPRPPRRIYNR], the minimum inhibitory concentration (MIC) against Escherichia coli JW0013 was found to be 1.36 µM (≈ 3.3 µg/mL).

The compound `CC[C@H](C)[C@H](NC(=O)[C@H](CCCN=C(N)N)NC(=O)[C@H](CCCN=C(N)N)NC(=O)[C@@H]1CCCN1C(=O)[C@@H]1CCCN1C(=O)[C@H](CCCN=C(N)N)NC(=O)[C@@H]1CCCN1C(=O)[C@H](CCCN=C(N)N)NC(=O)[C@@H]1CCCN1C(=O)[C@H](CCCN=C(N)N)NC(=O)[C@H](CCCN=C(N)N)NC(=O)[C@@H]1CCCN1C(=O)[C@H](CCCCN)NC(=O)[C@H](CCCCN)NC(=O)[C@H](CC(=O)O)NC(=O)[C@@H](N)C(C)C)C(=O)N[C@@H](Cc1ccc(O)cc1)C(=O)N[C@@H](CC(N)=O)C(=O)N[C@@H](CCCN=C(N)N)C(N)=O` [VDKKPRRPRPRPPRRIYNR] showed an MIC in the assay on Escherichia coli JW0013 of 1.34 µM (≈ 3.3 µg/mL).

Regarding `CC[C@H](C)[C@H](NC(=O)[C@H](CCCN=C(N)N)NC(=O)[C@H](CCCN=C(N)N)NC(=O)[C@@H]1CCCN1C(=O)[C@@H]1CCCN1C(=O)[C@H](CCCN=C(N)N)NC(=O)[C@H](CCCCN)NC(=O)[C@H](CCCN=C(N)N)NC(=O)[C@@H]1CCCN1C(=O)[C@H](CCCCN)NC(=O)[C@H](Cc1ccc(O)cc1)NC(=O)[C@@H]1CCCN1C(=O)[C@H](CCCCN)NC(=O)[C@H](CCCCN)NC(=O)[C@H](CC(=O)O)NC(=O)[C@@H](N)C(C)C)C(=O)N[C@@H](Cc1ccc(O)cc1)C(=O)N[C@@H](CC(N)=O)C(=O)N[C@@H](CCCN=C(N)N)C(N)=O` [VDKKPYKPRKRPPRRIYNR], in the assay with Escherichia coli JW0013, the MIC is 0.973 µM (≈ 2.4 µg/mL).
